Test results as given in patent publication US10670605B2, “Cysteine reactive probes and uses thereof” (The Scripps Research Institute, priority 2015, dated 2020).
One block for each compound: values may come before it.

Tests used:
Assay in all cases: Competitive isoTOP-ABPP, cell lysates
Type in all cases: binding
CASP8 C360 (Q14790) = CASP8 C360 (Q14790) (Homo sapiens, UniProt Q14790); details: for isoTOP-ABPP reactivity ratio, Q14790_C360: 500 μm
MGMT C145 (P16455) = target: T1, MGMT C145 (P16455) (Homo sapiens, UniProt P16455); details: for isoTOP-ABPP ratio (reactivity profile), P16455_C145: 500 μm in-vitro ramos; for isoTOP-ABPP reactivity profile ratio, P16455_C145 / isoTOP-ABPP reactivity ratio, P16455_C145: 500 μm, in-vitro_ramos
T1 sequence (P16455 1-207): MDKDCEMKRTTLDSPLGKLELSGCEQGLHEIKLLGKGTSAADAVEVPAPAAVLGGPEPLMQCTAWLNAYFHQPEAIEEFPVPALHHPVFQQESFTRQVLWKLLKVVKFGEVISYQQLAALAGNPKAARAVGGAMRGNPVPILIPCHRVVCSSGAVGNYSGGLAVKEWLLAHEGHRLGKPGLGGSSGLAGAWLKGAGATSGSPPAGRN

CDK5 C157 (Q00535) = CDK5 C157 (Q00535) (Homo sapiens, UniProt Q00535); details: for isoTOP-ABPP reactivity profile ratio, Q00535_C157 / isoTOP-ABPP reactivity ratio, Q00535_C157: 500 μm
CDK5 C157 (Q00535), sequence (Q00535 whole entry): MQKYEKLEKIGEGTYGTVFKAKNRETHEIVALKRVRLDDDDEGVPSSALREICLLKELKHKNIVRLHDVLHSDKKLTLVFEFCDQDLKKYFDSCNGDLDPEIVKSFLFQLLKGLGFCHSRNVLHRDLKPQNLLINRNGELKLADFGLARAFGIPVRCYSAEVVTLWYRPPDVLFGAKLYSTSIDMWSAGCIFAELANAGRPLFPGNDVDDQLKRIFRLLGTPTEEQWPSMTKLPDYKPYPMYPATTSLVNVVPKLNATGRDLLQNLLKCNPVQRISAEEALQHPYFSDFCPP

USP16 C205 (Q9Y5T5) = USP16 C205 (Q9Y5T5) (Homo sapiens, UniProt Q9Y5T5); details: for isoTOP-ABPP reactivity profile ratio, Q9Y5T5_C205 / isoTOP-ABPP reactivity ratio, Q9Y5T5_C205: 500 μm
USP16 C205 (Q9Y5T5), sequence (Q9Y5T5 whole entry): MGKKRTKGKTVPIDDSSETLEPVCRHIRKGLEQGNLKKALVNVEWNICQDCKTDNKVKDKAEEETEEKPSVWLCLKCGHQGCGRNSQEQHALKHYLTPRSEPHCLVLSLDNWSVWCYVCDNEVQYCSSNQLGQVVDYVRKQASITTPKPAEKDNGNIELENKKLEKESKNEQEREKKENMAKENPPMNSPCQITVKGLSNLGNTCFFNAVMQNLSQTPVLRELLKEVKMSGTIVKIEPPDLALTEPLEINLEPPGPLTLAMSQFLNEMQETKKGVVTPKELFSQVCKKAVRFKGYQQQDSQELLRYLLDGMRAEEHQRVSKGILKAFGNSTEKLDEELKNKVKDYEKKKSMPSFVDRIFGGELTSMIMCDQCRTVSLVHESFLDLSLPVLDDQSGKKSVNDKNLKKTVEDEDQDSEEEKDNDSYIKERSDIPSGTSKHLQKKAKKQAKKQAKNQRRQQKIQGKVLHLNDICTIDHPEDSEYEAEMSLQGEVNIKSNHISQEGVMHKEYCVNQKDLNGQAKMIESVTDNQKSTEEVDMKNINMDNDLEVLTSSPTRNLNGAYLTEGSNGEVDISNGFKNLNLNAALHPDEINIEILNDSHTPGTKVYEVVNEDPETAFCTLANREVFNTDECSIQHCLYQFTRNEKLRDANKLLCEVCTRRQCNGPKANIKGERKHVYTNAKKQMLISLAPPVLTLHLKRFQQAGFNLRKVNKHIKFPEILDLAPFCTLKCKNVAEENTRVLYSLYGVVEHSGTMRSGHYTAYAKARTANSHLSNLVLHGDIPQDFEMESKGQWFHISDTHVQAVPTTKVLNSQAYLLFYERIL

KDM4B C694 (O94953) = target: T2, KDM4B C694 (O94953) (Homo sapiens, UniProt O94953); details: for isoTOP-ABPP reactivity profile ratio, O94953_C694 / isoTOP-ABPP reactivity ratio, O94953_C694: 500 μm; for isoTOP-ABPP ratio, O94953_C694: 500 μM, invitro
T2 sequence (O94953 1-1096): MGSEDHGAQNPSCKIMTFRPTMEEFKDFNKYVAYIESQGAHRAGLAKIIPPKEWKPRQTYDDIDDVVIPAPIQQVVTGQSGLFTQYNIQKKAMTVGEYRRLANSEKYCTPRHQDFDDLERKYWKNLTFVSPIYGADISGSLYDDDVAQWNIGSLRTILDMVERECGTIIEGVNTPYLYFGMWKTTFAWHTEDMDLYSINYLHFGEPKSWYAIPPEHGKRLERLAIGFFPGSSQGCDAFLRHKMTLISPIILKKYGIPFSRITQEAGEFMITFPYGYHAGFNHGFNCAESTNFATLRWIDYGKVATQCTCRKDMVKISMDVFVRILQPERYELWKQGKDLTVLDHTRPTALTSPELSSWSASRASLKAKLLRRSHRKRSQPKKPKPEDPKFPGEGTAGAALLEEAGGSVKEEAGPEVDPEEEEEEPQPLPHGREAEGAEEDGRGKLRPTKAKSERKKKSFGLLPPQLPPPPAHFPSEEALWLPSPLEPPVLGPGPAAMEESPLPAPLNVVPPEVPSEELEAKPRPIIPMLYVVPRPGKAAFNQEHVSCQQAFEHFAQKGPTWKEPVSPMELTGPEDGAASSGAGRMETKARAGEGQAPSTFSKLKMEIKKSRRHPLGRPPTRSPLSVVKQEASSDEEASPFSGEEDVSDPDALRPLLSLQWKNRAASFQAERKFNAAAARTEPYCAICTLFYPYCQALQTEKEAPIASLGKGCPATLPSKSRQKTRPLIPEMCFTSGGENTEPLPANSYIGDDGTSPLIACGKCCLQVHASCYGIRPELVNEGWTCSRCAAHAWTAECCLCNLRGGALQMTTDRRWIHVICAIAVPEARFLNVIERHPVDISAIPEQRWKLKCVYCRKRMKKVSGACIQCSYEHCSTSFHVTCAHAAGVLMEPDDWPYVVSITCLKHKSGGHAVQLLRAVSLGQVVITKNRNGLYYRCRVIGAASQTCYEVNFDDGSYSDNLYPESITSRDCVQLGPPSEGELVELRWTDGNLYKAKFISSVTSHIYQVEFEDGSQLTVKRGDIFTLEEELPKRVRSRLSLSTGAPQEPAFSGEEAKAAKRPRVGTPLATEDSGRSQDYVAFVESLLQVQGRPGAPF

LRBA C1704 (P50851) = LRBA C1704 (P50851) (Homo sapiens, UniProt P50851); details: for isoTOP-ABPP ratio, P50851_C1704: 500 μM, invitro
LRBA C1704 (P50851), sequence (P50851 whole entry): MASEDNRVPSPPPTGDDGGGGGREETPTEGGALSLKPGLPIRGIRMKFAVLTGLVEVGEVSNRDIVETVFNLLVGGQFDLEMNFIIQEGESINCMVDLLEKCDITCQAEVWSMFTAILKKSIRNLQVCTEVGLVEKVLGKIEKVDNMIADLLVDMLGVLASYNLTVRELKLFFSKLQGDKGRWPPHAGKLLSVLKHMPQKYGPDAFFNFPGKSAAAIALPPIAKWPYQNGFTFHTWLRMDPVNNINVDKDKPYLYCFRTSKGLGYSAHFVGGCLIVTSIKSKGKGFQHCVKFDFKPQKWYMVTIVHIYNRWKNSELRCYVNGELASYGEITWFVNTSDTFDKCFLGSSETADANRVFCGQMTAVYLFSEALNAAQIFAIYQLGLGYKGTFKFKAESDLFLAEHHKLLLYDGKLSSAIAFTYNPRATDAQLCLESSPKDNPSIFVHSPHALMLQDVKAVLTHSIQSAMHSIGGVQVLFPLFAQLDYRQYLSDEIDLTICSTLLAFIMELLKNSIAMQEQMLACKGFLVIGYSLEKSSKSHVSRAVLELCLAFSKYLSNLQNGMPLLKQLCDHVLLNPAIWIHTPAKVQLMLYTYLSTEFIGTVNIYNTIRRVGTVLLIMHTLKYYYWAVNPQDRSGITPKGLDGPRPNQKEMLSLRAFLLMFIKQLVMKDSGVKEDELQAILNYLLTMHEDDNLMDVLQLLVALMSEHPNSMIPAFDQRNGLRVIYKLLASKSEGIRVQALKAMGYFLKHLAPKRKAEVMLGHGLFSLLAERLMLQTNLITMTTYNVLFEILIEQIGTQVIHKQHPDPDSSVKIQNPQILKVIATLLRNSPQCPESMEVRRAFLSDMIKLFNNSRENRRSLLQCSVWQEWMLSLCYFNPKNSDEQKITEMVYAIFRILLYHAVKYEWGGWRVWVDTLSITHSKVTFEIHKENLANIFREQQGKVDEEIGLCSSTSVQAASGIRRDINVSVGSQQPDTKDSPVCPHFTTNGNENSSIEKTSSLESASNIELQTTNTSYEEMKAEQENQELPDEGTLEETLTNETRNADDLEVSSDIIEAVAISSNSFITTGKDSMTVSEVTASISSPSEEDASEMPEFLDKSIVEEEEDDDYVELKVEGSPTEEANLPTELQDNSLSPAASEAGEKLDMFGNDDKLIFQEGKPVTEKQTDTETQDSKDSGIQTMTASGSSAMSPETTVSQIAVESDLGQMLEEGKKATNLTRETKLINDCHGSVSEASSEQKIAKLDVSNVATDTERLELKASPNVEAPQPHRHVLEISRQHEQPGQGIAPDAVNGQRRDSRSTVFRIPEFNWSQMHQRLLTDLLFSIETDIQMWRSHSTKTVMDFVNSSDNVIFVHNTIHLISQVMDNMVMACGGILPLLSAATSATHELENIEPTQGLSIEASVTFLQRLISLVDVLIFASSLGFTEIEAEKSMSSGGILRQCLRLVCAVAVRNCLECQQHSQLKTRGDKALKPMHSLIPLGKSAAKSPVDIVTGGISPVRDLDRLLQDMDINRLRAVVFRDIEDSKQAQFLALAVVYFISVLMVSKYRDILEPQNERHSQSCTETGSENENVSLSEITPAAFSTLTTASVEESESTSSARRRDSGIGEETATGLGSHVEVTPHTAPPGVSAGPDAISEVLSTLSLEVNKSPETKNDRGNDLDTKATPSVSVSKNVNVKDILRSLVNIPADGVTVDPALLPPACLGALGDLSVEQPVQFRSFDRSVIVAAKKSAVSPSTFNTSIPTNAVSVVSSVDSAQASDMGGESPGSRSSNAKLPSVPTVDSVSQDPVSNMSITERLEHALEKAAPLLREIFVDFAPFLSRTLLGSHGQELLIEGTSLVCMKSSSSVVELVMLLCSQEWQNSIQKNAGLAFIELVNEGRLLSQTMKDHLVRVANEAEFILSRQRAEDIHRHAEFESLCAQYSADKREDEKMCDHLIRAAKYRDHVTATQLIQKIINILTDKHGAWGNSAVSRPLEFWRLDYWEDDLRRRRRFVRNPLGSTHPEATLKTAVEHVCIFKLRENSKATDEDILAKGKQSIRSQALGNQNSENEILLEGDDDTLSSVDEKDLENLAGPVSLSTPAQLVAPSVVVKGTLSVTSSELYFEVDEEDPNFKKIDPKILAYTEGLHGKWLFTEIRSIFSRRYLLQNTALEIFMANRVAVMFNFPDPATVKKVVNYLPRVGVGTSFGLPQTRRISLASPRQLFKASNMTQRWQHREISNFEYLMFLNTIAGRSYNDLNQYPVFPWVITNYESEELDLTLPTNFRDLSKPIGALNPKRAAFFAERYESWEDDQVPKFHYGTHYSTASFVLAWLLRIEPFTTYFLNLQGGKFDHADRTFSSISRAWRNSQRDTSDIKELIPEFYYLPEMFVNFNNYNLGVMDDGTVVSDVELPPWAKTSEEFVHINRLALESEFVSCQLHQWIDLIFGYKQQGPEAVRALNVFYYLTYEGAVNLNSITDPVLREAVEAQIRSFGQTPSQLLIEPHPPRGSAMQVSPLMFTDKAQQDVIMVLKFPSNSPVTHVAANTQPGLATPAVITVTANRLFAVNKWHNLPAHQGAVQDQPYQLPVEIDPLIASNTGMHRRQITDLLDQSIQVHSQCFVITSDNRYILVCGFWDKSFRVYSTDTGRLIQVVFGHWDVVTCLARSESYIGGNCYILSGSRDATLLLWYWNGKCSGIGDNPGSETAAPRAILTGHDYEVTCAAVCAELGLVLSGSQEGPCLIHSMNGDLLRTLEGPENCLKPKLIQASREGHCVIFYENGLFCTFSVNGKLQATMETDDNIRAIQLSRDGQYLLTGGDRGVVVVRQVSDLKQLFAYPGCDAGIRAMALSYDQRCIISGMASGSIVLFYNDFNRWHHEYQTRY

PFKFB4 C159 (Q16877) = PFKFB4 C159 (Q16877) (Homo sapiens, UniProt Q16877)
PFKFB4 C159 (Q16877), sequence (Q16877 whole entry): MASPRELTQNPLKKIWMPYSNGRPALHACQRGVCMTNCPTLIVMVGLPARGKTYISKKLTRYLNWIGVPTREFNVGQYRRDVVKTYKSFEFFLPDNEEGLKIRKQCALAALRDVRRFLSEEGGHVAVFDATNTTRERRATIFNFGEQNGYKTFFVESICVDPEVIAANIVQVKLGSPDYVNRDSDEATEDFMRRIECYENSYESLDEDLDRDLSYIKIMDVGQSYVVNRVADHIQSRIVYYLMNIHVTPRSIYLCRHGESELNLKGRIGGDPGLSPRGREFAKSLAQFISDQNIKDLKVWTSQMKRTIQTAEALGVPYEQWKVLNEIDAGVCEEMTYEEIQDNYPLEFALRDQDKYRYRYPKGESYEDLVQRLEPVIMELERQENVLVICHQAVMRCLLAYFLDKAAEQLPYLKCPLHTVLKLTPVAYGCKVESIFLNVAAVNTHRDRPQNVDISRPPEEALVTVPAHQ

CASP8 C360 (Q14790), sequence (Q14790 whole entry): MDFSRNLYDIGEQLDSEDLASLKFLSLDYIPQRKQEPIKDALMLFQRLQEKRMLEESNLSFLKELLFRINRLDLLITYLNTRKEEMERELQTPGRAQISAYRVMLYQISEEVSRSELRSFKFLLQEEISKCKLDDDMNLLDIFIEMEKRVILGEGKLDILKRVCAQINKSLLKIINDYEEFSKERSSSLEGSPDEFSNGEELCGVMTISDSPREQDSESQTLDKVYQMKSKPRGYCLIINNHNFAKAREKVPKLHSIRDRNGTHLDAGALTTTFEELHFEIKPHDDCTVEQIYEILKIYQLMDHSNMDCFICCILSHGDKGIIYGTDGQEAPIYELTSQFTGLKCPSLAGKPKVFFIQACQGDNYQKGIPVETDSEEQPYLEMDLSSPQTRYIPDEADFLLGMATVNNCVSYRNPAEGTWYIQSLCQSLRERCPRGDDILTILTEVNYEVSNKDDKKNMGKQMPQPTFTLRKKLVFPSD

isoTOP-ABPP ratio (reactivity profile), Q14790_C360 (CASP8 C360 (Q14790); 500 μm in-vitro ramos_231): 1.1 | isoTOP-ABPP ratio (reactivity profile), P16455_C145 (MGMT C145 (P16455)): 20.0 | isoTOP-ABPP ratio (reactivity profile), Q00535_C157 (CDK5 C157 (Q00535); 500 μm in-vitro ramos): 1.0 | isoTOP-ABPP ratio (reactivity profile), Q00535_C157 (CDK5 C157 (Q00535); 500 μm in-vitro ramos_231): 0.9 | isoTOP-ABPP ratio (reactivity profile), Q9Y5T5_C205 (USP16 C205 (Q9Y5T5); 500 μm in-vitro ramos): 1.6
Structure (SMILES): COc1ccccc1OCCNC(=O)CCl [compound 28]

isoTOP-ABPP reactivity profile ratio, P16455_C145 (MGMT C145 (P16455)): 1.0 | isoTOP-ABPP reactivity profile ratio, Q00535_C157 (CDK5 C157 (Q00535); in-vitro_ramos): 0.8 | isoTOP-ABPP reactivity profile ratio, Q00535_C157 (CDK5 C157 (Q00535); in-vitro_ramos_231): 1.2 | isoTOP-ABPP reactivity profile ratio, Q9Y5T5_C205 (USP16 C205 (Q9Y5T5); in-vitro_ramos_231): 1.1
Structure (SMILES): C=CC(=O)N1CCC(Cc2ccccc2)CC1 [compound 53]

Structure (SMILES): O=C(CCl)N1CCC(C(O)(c2ccccc2)c2ccccc2)CC1 [compound 20]
isoTOP-ABPP ratio (reactivity profile), Q14790_C360 (CASP8 C360 (Q14790); 500 μm in-vitro ramos): 1.5 | isoTOP-ABPP ratio (reactivity profile), Q14790_C360 (CASP8 C360 (Q14790); 500 μm in-vitro ramos_231): 1.9 | isoTOP-ABPP ratio (reactivity profile), O94953_C694 (KDM4B C694 (O94953); 500 μm in-vitro ramos): 2.0 | isoTOP-ABPP ratio (reactivity profile), O94953_C694 (KDM4B C694 (O94953); 500 μm in-vitro ramos_231): 2.8 | isoTOP-ABPP ratio (reactivity profile), P50851_C1704 (LRBA C1704 (P50851); 500 μm in-vitro ramos): 1.7 | isoTOP-ABPP ratio (reactivity profile), P50851_C1704 (LRBA C1704 (P50851); 500 μm in-vitro ramos_231): 2.0 | isoTOP-ABPP ratio (reactivity profile), P16455_C145 (MGMT C145 (P16455)): 20.0 | isoTOP-ABPP ratio (reactivity profile), Q00535_C157 (CDK5 C157 (Q00535); 500 μm in-vitro ramos): 2.0 | isoTOP-ABPP ratio (reactivity profile), Q16877_C159 (PFKFB4 C159 (Q16877); 500 μm in-vitro ramos): 1.0

isoTOP-ABPP reactivity profile ratio, O94953_C694 (KDM4B C694 (O94953); in-vitro_ramos): 1.4 | isoTOP-ABPP reactivity profile ratio, P50851_C1704 (LRBA C1704 (P50851); 500 μm, in-vitro_ramos): 1.1 | isoTOP-ABPP reactivity profile ratio, P16455_C145 (MGMT C145 (P16455)): 20.0 | isoTOP-ABPP reactivity profile ratio, Q00535_C157 (CDK5 C157 (Q00535); in-vitro_ramos): 1.0 | isoTOP-ABPP reactivity profile ratio, Q9Y5T5_C205 (USP16 C205 (Q9Y5T5); in-vitro_ramos): 3.2 | isoTOP-ABPP reactivity profile ratio, Q9Y5T5_C205 (USP16 C205 (Q9Y5T5); in-vitro_ramos_231): 1.7 | isoTOP-ABPP reactivity profile ratio, Q16877_C159 (PFKFB4 C159 (Q16877); 500 μm, in-vitro_ramos): 1.1
Structure (SMILES): O=C(CCl)Nc1cccc2ncccc12 [compound 51]

isoTOP-ABPP reactivity ratio, Q14790_C360 (CASP8 C360 (Q14790); in-vitro_ramos): 4.1 | isoTOP-ABPP reactivity ratio, Q14790_C360 (CASP8 C360 (Q14790); in-vitro_ramos_231): 1.0 | isoTOP-ABPP reactivity ratio, O94953_C694 (KDM4B C694 (O94953); in-vitro_ramos): 2.4 | isoTOP-ABPP reactivity ratio, P50851_C1704 (LRBA C1704 (P50851); 500 μm, in-vitro_ramos): 2.5 | isoTOP-ABPP reactivity ratio, Q00535_C157 (CDK5 C157 (Q00535); in-vitro_ramos_231): 0.9 | isoTOP-ABPP reactivity ratio, Q9Y5T5_C205 (USP16 C205 (Q9Y5T5); in-vitro_ramos): 1.9
Structure (SMILES): C=CC(=O)Nc1cc(F)c(N2CCN(C(=O)OC(C)(C)C)CC2)c(F)c1 [compound 38]

isoTOP-ABPP ratio (reactivity profile), O94953_C694 (KDM4B C694 (O94953); 500 μm in-vitro ramos): 1.1 | isoTOP-ABPP ratio (reactivity profile), P50851_C1704 (LRBA C1704 (P50851); 500 μm in-vitro ramos): 1.9 | isoTOP-ABPP ratio (reactivity profile), P16455_C145 (MGMT C145 (P16455)): 1.3
Structure (SMILES): C=CC(=O)N(Cc1cccnc1)c1ccc(Oc2ccccc2)c(C(F)(F)F)c1 [compound 15]

isoTOP-ABPP reactivity profile ratio, O94953_C694 (KDM4B C694 (O94953); in-vitro_ramos_231): 20.0 | isoTOP-ABPP reactivity profile ratio, Q00535_C157 (CDK5 C157 (Q00535); in-vitro_ramos): 1.2
Structure (SMILES): COc1cc(NC(=O)CCl)cc(OC)c1 [compound 43]

isoTOP-ABPP ratio (reactivity profile), Q14790_C360 (CASP8 C360 (Q14790); 500 μm in-vitro ramos): 1.4 | isoTOP-ABPP ratio (reactivity profile), P50851_C1704 (LRBA C1704 (P50851); 500 μm in-vitro ramos): 1.3 | isoTOP-ABPP ratio (reactivity profile), P16455_C145 (MGMT C145 (P16455)): 20.0
Structure (SMILES): CC(Br)C(=O)Nc1cc(C(F)(F)F)cc(C(F)(F)F)c1 (centres unmarked) [compound 24]

isoTOP-ABPP reactivity ratio, P50851_C1704 (LRBA C1704 (P50851); 500 μm, in-vitro_ramos): 1.4 | isoTOP-ABPP reactivity ratio, P16455_C145 (MGMT C145 (P16455)): 1.0 | isoTOP-ABPP reactivity ratio, Q00535_C157 (CDK5 C157 (Q00535); in-vitro_ramos): 1.1
Structure (SMILES): C=CC(=O)N(Cc1cccnc1)c1cc(C(F)(F)F)cc(C(F)(F)F)c1 [compound 31]

isoTOP-ABPP ratio (reactivity profile), Q14790_C360 (CASP8 C360 (Q14790); 500 μm in-vitro ramos_231): 1.0 | isoTOP-ABPP ratio (reactivity profile), P50851_C1704 (LRBA C1704 (P50851); 500 μm in-vitro ramos_231): 0.8
Structure (SMILES): CC(Cl)C(=O)Nc1cc(C(F)(F)F)cc(C(F)(F)F)c1 (centres unmarked) [compound 25]

isoTOP-ABPP ratio (reactivity profile), Q14790_C360 (CASP8 C360 (Q14790); 500 μm in-vitro ramos): 2.0 | isoTOP-ABPP reactivity ratio, Q14790_C360 (CASP8 C360 (Q14790); in-vitro_ramos): 5.2
Structure (SMILES): CCN(CC)c1ccc(S(N)(=O)=O)cc1NC(=O)CCl [compound 30]

isoTOP-ABPP ratio, O94953_C694 (KDM4B C694 (O94953); 231): 1.4 | isoTOP-ABPP ratio, O94953_C694 (KDM4B C694 (O94953); ramos): 1.1 | isoTOP-ABPP ratio, P50851_C1704 (LRBA C1704 (P50851); 231): 0.7 | isoTOP-ABPP ratio, P50851_C1704 (LRBA C1704 (P50851); ramos): 0.8 | isoTOP-ABPP ratio, P16455_C145 (MGMT C145 (P16455); 500 μM, invitro, ramos): 20.0 | isoTOP-ABPP ratio, Q9Y5T5_C205 (USP16 C205 (Q9Y5T5); 500 μM, invitro, ramos): 3.3 | isoTOP-ABPP ratio, Q16877_C159 (PFKFB4 C159 (Q16877); 500 μM, invitro, 231): 0.9
Structure (SMILES): O=C(CCl)NCCc1c[nH]c2ccccc12 [compound 13]

isoTOP-ABPP reactivity ratio, Q14790_C360 (CASP8 C360 (Q14790); in-vitro_ramos): 1.0 | isoTOP-ABPP reactivity ratio, O94953_C694 (KDM4B C694 (O94953); in-vitro_ramos): 1.1 | isoTOP-ABPP reactivity ratio, P50851_C1704 (LRBA C1704 (P50851); 500 μm, in-vitro_ramos): 1.0
Structure (SMILES): C=CC(=O)N1CCC(c2noc3ccc(F)cc23)CC1 [compound 37]

isoTOP-ABPP ratio (reactivity profile), O94953_C694 (KDM4B C694 (O94953); 500 μm in-vitro ramos_231): 1.2 | isoTOP-ABPP ratio (reactivity profile), P16455_C145 (MGMT C145 (P16455)): 20.0
Structure (SMILES): O=C(CCl)N1CCN(CC(=O)N2CCOCC2)CC1 [compound 29]

isoTOP-ABPP ratio (reactivity profile), Q00535_C157 (CDK5 C157 (Q00535); 500 μm in-vitro ramos): 0.9
Structure (SMILES): O=C(/C=C/c1ccccc1)Nc1cc(C(F)(F)F)cc(C(F)(F)F)c1 [compound 26]

isoTOP-ABPP reactivity ratio, P16455_C145 (MGMT C145 (P16455)): 1.0 | isoTOP-ABPP reactivity ratio, Q9Y5T5_C205 (USP16 C205 (Q9Y5T5); in-vitro_ramos): 0.9 | isoTOP-ABPP reactivity ratio, Q16877_C159 (PFKFB4 C159 (Q16877); 500 μm, in-vitro_ramos): 1.2
Structure (SMILES): C=CC(=O)Nc1cc(C)c(Br)cc1C [compound 40]
